OR data for 1 molecule are collected here from patent US10563263B2, “Genetic polymorphisms associated with statin response and cardiovascular diseases, methods of detection and uses thereof” (CELERA CORPORATION, priority 2010, dated 2020).

Molecules are shown by their SMILES.

This assay has as its system CHD or CVD. Description: WOSCOPS: SNP by pravastatin treatment interaction, logistic regression (synergy index), cohort source; End-point (CHD or CVD) of the marker not given. Type of assay: in vivo, human.

In the case of `CC[C@H](C)C(=O)O[C@H]1C[C@H](O)C=C2C=C[C@H](C)[C@H](CC[C@@H](O)C[C@@H](O)CC(=O)O)[C@H]21` [Pravastatin, pravastatin], the OR amounted to 0.74 (marker rs1068705, pravastatin vs placebo); 0.79 (marker rs1564078, pravastatin vs placebo); 1.42 (marker rs9557509, pravastatin vs placebo); 1.16 (marker rs10802865, pravastatin vs placebo); 1.25 (marker rs11668038, pravastatin vs placebo); 1.22 (marker rs17035071, pravastatin vs placebo).
